Key:
[1] = tested on: soybean; assay: Test C preemergence; assay type: in vivo, Glycine max; conditions: for Plant response rating, Soybean: Preemergence; for Soybean plant response rating: preemergence
Method in brief: (§1)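 Greenhouse herbicide screen, 10-day duration. Test chemicals in solvent/surfactant blend were sprayed onto soil at sowing (pre) or onto 2–10 cm seedlings at one to two leaves (post); injury scored visually against controls, 0 no effect to 100 complete control.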

[2] = tested on: wheat; assay: Test C preemergence; assay type: in vivo, Triticum aestivum; conditions: for Plant response rating, Wheat: Preemergence; for Wheat plant response rating: preemergence
Method in brief: as §1

[3] = tested on: ragweed; assay: Test C postemergence; assay type: in vivo, Ambrosia artemisiifolia; conditions: 10 days
Method in brief: as §1

[4] = tested on: corn; assay: Test C postemergence; assay type: in vivo, Zea mays; conditions: 10 days
Method in brief: as §1

[5] = tested on: ragweed; assay: Test C preemergence; assay type: in vivo, Ambrosia artemisiifolia; conditions: for Plant response rating, Ragweed: Preemergence; for Ragweed plant response rating: preemergence
Method in brief: as §1

[6] = tested on: barnyardgrass; assay: Test C postemergence; assay type: in vivo, Echinochloa crusgalli; conditions: 10 days
Method in brief: as §1

[7] = tested on: corn; assay: Test C preemergence; assay type: in vivo, Zea mays; conditions: for Plant response rating, Corn: Preemergence; for Corn plant response rating: preemergence
Method in brief: as §1

[8] = tested on: kochia; assay: Test C preemergence; assay type: in vivo, Bassia scoparia; conditions: for Plant response rating, Kochia: Preemergence; for Kochia plant response rating: preemergence
Method in brief: as §1

[9] = tested on: green foxtail; assay: Test C postemergence; assay type: in vivo, Setaria viridis; conditions: 10 days
Method in brief: as §1

[10] = tested on: blackgrass; assay: Test C preemergence; assay type: in vivo, Alopecurus myosuroides; conditions: for Plant response rating, Blackgrass: Preemergence; for Blackgrass plant response rating: preemergence
Method in brief: as §1

[11] = tested on: wheat; assay: Test C postemergence; assay type: in vivo, Triticum aestivum; conditions: 10 days
Method in brief: as §1

[12] = tested on: ryegrass, Italian; assay: Test C preemergence; assay type: in vivo, Lolium multiflorum; conditions: for Plant response rating, Ryegrass, Italian: Preemergence; for Ryegrass, Italian plant response rating: preemergence
Method in brief: as §1

[13] = tested on: green foxtail; assay: Test C preemergence; assay type: in vivo, Setaria viridis; conditions: for Plant response rating, Foxtail, Green: Preemergence; for Foxtail, Green plant response rating: preemergence
Method in brief: as §1

[14] = tested on: barnyardgrass; assay: Test D flooded paddy test; assay type: in vivo, Echinochloa crus-galli; conditions: 250 g ai/ha, applied to paddy water, visual rating after 13 to 14 days, scale 0 to 100 (0 no effect, 100 complete control)
Method in brief: (§2)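 Compounds go straight into paddy water over 2-leaf plants in pots flooded to 3 cm. Greenhouse holding lasts 13 to 14 days. Injury is scored by eye against controls from 0 (none) to 100 (complete control).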

[15] = tested on: rice; assay: Test D flooded paddy test; assay type: in vivo, Oryza sativa; conditions: 250 g ai/ha, applied to paddy water, visual rating after 13 to 14 days, scale 0 to 100 (0 no effect, 100 complete control)
Method in brief: as §2

[16] = tested on: blackgrass; assay: Test C postemergence; assay type: in vivo, Alopecurus myosuroides; conditions: 10 days
Method in brief: as §1

[17] = tested on: ducksalad; assay: Test D flooded paddy test; assay type: in vivo, Heteranthera limosa; conditions: 250 g ai/ha, applied to paddy water, visual rating after 13 to 14 days, scale 0 to 100 (0 no effect, 100 complete control)
Method in brief: as §2

[18] = tested on: kochia; assay: Test C postemergence; assay type: in vivo, Bassia scoparia; conditions: 10 days
Method in brief: as §1

[19] = tested on: pigweed, palmer; assay: Test C preemergence; assay type: in vivo, Amaranthus palmeri; conditions: for Plant response rating, Pigweed, Palmer: Preemergence; for Pigweed, Palmer plant response rating: preemergence
Method in brief: as §1

[20] = tested on: horseweed; assay: Test C postemergence; assay type: in vivo, Erigeron canadensis; conditions: 10 days
Method in brief: as §1

[21] = tested on: oat, wild; assay: Test C preemergence; assay type: in vivo, Avena fatua; conditions: Preemergence, 500 g ai/ha; visual rating after 10 days, 0 to 100 scale (0 no effect, 100 complete control)
Method in brief: as §1

[22] = tested on: barnyardgrass; assay: Test C preemergence; assay type: in vivo, Echinochloa crusgalli; conditions: for Plant response rating, Barnyardgrass: Preemergence; for Barnyardgrass plant response rating: preemergence
Method in brief: as §1

[23] = tested on: soybean; assay: Test C postemergence; assay type: in vivo, Glycine max; conditions: 10 days
Method in brief: as §1

[24] = tested on: oat, wild; assay: Test C postemergence; assay type: in vivo, Avena fatua; conditions: 10 days
Method in brief: as §1

[25] = tested on: ryegrass, Italian; assay: Test C postemergence; assay type: in vivo, Lolium multiflorum; conditions: 10 days
Method in brief: as §1

[26] = tested on: pigweed, palmer; assay: Test C postemergence; assay type: in vivo, Amaranthus palmeri; conditions: 10 days
Method in brief: as §1

[27] = tested on: sedge, umbrella; assay: Test D flooded paddy test; assay type: in vivo, Cyperus difformis; conditions: 250 g ai/ha, applied to paddy water, visual rating after 13 to 14 days, scale 0 to 100 (0 no effect, 100 complete control)
Method in brief: as §2

[28] = tested on: galium; assay: Test C postemergence; assay type: in vivo, Galium aparine; conditions: 10 days, 0 to 100 scale (0 no effect, 100 complete control)
Method in brief: as §1

[29] = 500 g ai/ha, visual rating after 10 days, 0 to 100 scale (0 no effect, 100 complete control)
[30] = Test C, 125 g ai/ha, 0 to 100 scale (0 no effect, 100 complete control)
[31] = 125 g ai/ha, postemergence, 0 to 100 scale, 0 no effect, 100 complete control
[32] = Postemergence, 500 g ai/ha, visual 0 to 100 scale (0 no effect, 100 complete control)
[33] = 500 g ai/ha, 0 to 100 scale (0 no effect, 100 complete control)
[34] = 125 g ai/ha, 0 to 100 scale, 0 no effect, 100 complete control
[35] = 500 g ai/ha, postemergence, 0 to 100 scale (0 no effect, 100 complete control)
[36] = Postemergence, 125 g ai/ha, 0 to 100 scale (0 no effect, 100 complete control)

With C[C@H]1CN(C(=O)c2cccc(-c3ncccn3)c2)c2cccc(Cl)c2O1 [Compound 203] the “Plant response rating, Soybean” value [1, 29] was 0, the “Soybean plant response rating” value [1, 30] was 0 and the “Plant response rating, Wheat” value [2, 29] was 0. The “Wheat plant response rating” value [2, 30] was 0, the “Plant response rating, Ragweed” value [3, 31] was 0 and the “Plant response rating, Ragweed” value [3, 32] was 20. For the same molecule, the “Plant response rating, Corn” value [4, 31] was 0, the “Plant response rating, Corn” value [4, 32] was 10 and the “Plant response rating, Ragweed” value [5, 29] was 0. The “Ragweed plant response rating” value [5, 30] was 0, the “Plant response rating, Barnyardgrass” value [6, 31] was 0 and the “Plant response rating, Barnyardgrass” value [6, 32] was 0. The “Plant response rating, Corn” value [7, 29] was 0, the “Corn plant response rating” value [7, 30] was 0 and the “Plant response rating, Kochia” value [8, 29] was 30. For the same molecule, the “Kochia plant response rating” value [8, 30] was 0, the “Plant response rating, Foxtail, Green” value [9, 31] was 0 and the “Plant response rating, Foxtail, Green” value [9, 32] was 10. For the same molecule, the “Plant response rating, Blackgrass” value [10, 29] was 0, the “Blackgrass plant response rating” value [10, 30] was 0 and the “Plant response rating, Wheat” value [11, 31] was 0. The “Plant response rating, Wheat” value [11, 32] was 10, the “Plant response rating, Ryegrass, Italian” value [12, 29] was 20 and the “Ryegrass, Italian plant response rating” value [12, 30] was 0. The “Plant response rating, Foxtail, Green” value [13, 29] was 60, the “Foxtail, Green plant response rating” value [13, 30] was 20 and the “Plant response rating, Barnyardgrass (Flood)” value [14] was 0. For the same molecule, the “Plant response rating, Rice (Flood)” value [15] was 0, the “Plant response rating, Blackgrass” value [16, 31] was 0 and the “Plant response rating, Blackgrass” value [16, 32] was 0. The “Plant response rating, Ducksalad (Flood)” value [17] was 0, the “Plant response rating, Kochia” value [18, 31] was 0 and the “Plant response rating, Kochia” value [18, 32] was 40. For the same molecule, the “Plant response rating, Pigweed, Palmer” value [19, 29] was 70, the “Pigweed, Palmer plant response rating” value [19, 30] was 20 and the “Plant response rating, Horseweed” value [20, 31] was 0. The “Plant response rating, Horseweed” value [20, 32] was 0, the “Plant response rating, Oat, Wild” value [21] was 0 and the “Plant response rating, Barnyardgrass” value [22, 29] was 0. For the same molecule, the “Barnyardgrass plant response rating” value [22, 30] was 0, the “Plant response rating, Soybean” value [23, 31] was 100 and the “Plant response rating, Soybean” value [23, 32] was 100. The “Plant response rating, Oat, Wild” value [24, 31] was 0, the “Plant response rating, Oat, Wild” value [24, 32] was 10 and the “Plant response rating, Ryegrass, Italian” value [25, 31] was 0. For the same molecule, the “Plant response rating, Ryegrass, Italian” value [25, 32] was 0, the “Plant response rating, Pigweed, Palmer” value [26, 31] was 0 and the “Plant response rating, Pigweed, Palmer” value [26, 32] was 40. The “Plant response rating, Sedge, Umbrella (Flood)” value [27] was 0.

With CC(=O)c1ncn(-c2ccc(C)c(C(=O)N3C[C@H](C)Oc4c(Cl)cccc43)c2)n1 [Compound 360] the “Soybean plant response rating” value [1, 33] was 100, the “Plant response rating, Soybean” value [1, 34] was 80 and the “Wheat plant response rating” value [2, 33] was 80. For the same molecule, the “Plant response rating, Wheat” value [2, 34] was 40, the “Plant response rating, Ragweed” value [3, 35] was 80 and the “Plant response rating, Ragweed” value [3, 36] was 50. For the same molecule, the “Plant response rating, Corn” value [4, 35] was 90, the “Plant response rating, Corn” value [4, 36] was 90 and the “Ragweed plant response rating” value [5, 33] was 100. The “Plant response rating, Ragweed” value [5, 34] was 80, the “Plant response rating, Barnyardgrass” value [6, 35] was 100 and the “Plant response rating, Barnyardgrass” value [6, 36] was 90. For the same molecule, the “Corn plant response rating” value [7, 33] was 70, the “Plant response rating, Corn” value [7, 34] was 60 and the “Kochia plant response rating” value [8, 33] was 80. The “Plant response rating, Kochia” value [8, 34] was 20, the “Plant response rating, Foxtail, Green” value [9, 35] was 90 and the “Plant response rating, Foxtail, Green” value [9, 36] was 90. For the same molecule, the “Blackgrass plant response rating” value [10, 33] was 100, the “Plant response rating, Blackgrass” value [10, 34] was 80 and the “Plant response rating, Wheat” value [11, 35] was 50. For the same molecule, the “Plant response rating, Wheat” value [11, 36] was 30, the “Ryegrass, Italian plant response rating” value [12, 33] was 90 and the “Plant response rating, Ryegrass, Italian” value [12, 34] was 80. For the same molecule, the “Foxtail, Green plant response rating” value [13, 33] was 100, the “Plant response rating, Foxtail, Green” value [13, 34] was 100 and the “Plant response rating, Barnyardgrass (Flood)” value [14] was 45. The “Plant response rating, Rice (Flood)” value [15] was 15, the “Plant response rating, Blackgrass” value [16, 35] was 90 and the “Plant response rating, Blackgrass” value [16, 36] was 80. For the same molecule, the “Plant response rating, Ducksalad (Flood)” value [17] was 100, the “Plant response rating, Kochia” value [18, 35] was 70 and the “Plant response rating, Kochia” value [18, 36] was 20. For the same molecule, the “Pigweed, Palmer plant response rating” value [19, 33] was 90, the “Plant response rating, Pigweed, Palmer” value [19, 34] was 30 and the “Plant response rating, Horseweed” value [20, 35] was 30. The “Barnyardgrass plant response rating” value [22, 33] was 100, the “Plant response rating, Barnyardgrass” value [22, 34] was 100 and the “Plant response rating, Soybean” value [23, 35] was 100. For the same molecule, the “Plant response rating, Soybean” value [23, 36] was 100, the “Plant response rating, Oat, Wild” value [24, 35] was 90 and the “Plant response rating, Oat, Wild” value [24, 36] was 30. For the same molecule, the “Plant response rating, Ryegrass, Italian” value [25, 35] was 100, the “Plant response rating, Ryegrass, Italian” value [25, 36] was 70 and the “Plant response rating, Pigweed, Palmer” value [26, 35] was 90. The “Plant response rating, Pigweed, Palmer” value [26, 36] was 60, the “Plant response rating, Galium” value ([28]; 500 g ai/ha, postemergence) was 100 and the “Plant response rating, Galium” value ([28]; Postemergence, 125 g ai/ha) was 100. For the same molecule, the “Plant response rating, Sedge, Umbrella (Flood)” value [27] was 90.
